Experimental data: patent publication US12252492B2, “Substituted fused pyrrolo-diazepinones and uses thereof” (Northwestern University, priority 2018, dated 2025)

Columns and labels:
Assay type in all cases: cell-based, human
SK-MEL-28 = assay: NCI60 one-dose screen, SK-MEL-28; conditions: SK-MEL-28 (Melanoma); NCI 60 one-dose, 10^-5 M
Protocol: (§1) Anti-cancer activity screening of all compounds was performed by the NCI Developmental Therapeutics Program (DTP) through their NCI60 screening initiative. Assay details can be found at the website dtp.cancer.gov/discovery_development/nci-60/methodology.htm. Information from this website is reproduced here for convenience.
(§2) As of early 2007 all compounds submitted to the NCI 60 Cell screen are tested initially at a single high dose (10^-5 M) in the full NCI 60 cell panel. Only compounds which satisfy pre-determined threshold inhibition criteria in a minimum number of cell lines will progress to the full 5-dose assay. The threshold inhibition criteria for progression to the 5-dose screen was selected to efficiently capture compounds with anti-proliferative activity based on careful analysis of historical DTP screening data. The threshold criteria may be updated as additional data becomes available.
(§3) The One-dose data will be reported as a mean graph of the percent growth of treated cells and will be similar in appearance to mean graphs from the 5-dose assay. […]
(§4) Following drug addition, the plates are incubated for an additional 48 h at 37° C., 5% CO2, 95% air, and 100% relative humidity. […] Bound stain is subsequently solubilized with 10 mM trizma base, and the absorbance is read on an automated plate reader at a wavelength of 515 nm. […]

CCRF-CEM = assay: NCI60 one-dose screen, CCRF-CEM; conditions: CCRF-CEM (Leukemia); NCI 60 one-dose, 10^-5 M
Protocol: as §1, §2, §3, §4

K-562 = assay: NCI60 one-dose screen, K-562; conditions: K-562 (Leukemia); NCI 60 one-dose, 10^-5 M
Protocol: as §1, §2, §3, §4

NCI/ADR-RES = assay: NCI60 one-dose screen, NCI/ADR-RES; conditions: NCI/ADR-RES (Ovarian Cancer); NCI 60 one-dose, 10^-5 M
Protocol: as §1, §2, §3, §4

MCF7 = assay: NCI60 one-dose screen, MCF7; conditions: MCF7 (Breast Cancer); NCI 60 one-dose, 10^-5 M
Protocol: as §1, §2, §3, §4

SF-295 = assay: NCI60 one-dose screen, SF-295; conditions: SF-295 (CNS Cancer); NCI 60 one-dose, 10^-5 M
Protocol: as §1, §2, §3, §4

EKVX = assay: NCI60 one-dose screen, EKVX; conditions: EKVX (Non-Small Cell Lung Cancer); NCI 60 one-dose, 10^-5 M
Protocol: as §1, §2, §3, §4

NCI-H522 = assay: NCI60 one-dose screen, NCI-H522; conditions: NCI-H522 (Non-Small Cell Lung Cancer); NCI 60 one-dose, 10^-5 M
Protocol: as §1, §2, §3, §4

UO-31 = assay: NCI60 one-dose screen, UO-31; conditions: UO-31 (Renal Cancer); NCI 60 one-dose, 10^-5 M
Protocol: as §1, §2, §3, §4

NCI-H322M = assay: NCI60 one-dose screen, NCI-H322M; conditions: NCI-H322M (Non-Small Cell Lung Cancer); NCI 60 one-dose, 10^-5 M
Protocol: as §1, §2, §3, §4

OVCAR-5 = assay: NCI60 one-dose screen, OVCAR-5; conditions: OVCAR-5 (Ovarian Cancer); NCI 60 one-dose, 10^-5 M
Protocol: as §1, §2, §3, §4

MOLT-4 = assay: NCI60 one-dose screen, MOLT-4; conditions: MOLT-4 (Leukemia); NCI 60 one-dose, 10^-5 M
Protocol: as §1, §2, §3, §4

HS 578T = assay: NCI60 one-dose screen, HS 578T; conditions: HS 578T (Breast Cancer); NCI 60 one-dose, 10^-5 M
Protocol: as §1, §2, §3, §4

PC-3 = assay: NCI60 one-dose screen, PC-3; conditions: PC-3 (Prostate Cancer); NCI 60 one-dose, 10^-5 M
Protocol: as §1, §2, §3, §4

BT-549 = assay: NCI60 one-dose screen, BT-549; conditions: BT-549 (Breast Cancer); NCI 60 one-dose, 10^-5 M
Protocol: as §1, §2, §3, §4

NCI60 Cell Line Panel = assay: NCI60 one-dose screen, whole panel statistics; conditions: mean over the NCI60 cell line panel, 10^-5 M
Protocol: as §1, §2, §3, §4

LOX IMVI = assay: NCI60 one-dose screen, LOX IMVI; conditions: LOX IMVI (Melanoma); NCI 60 one-dose, 10^-5 M
Protocol: as §1, §2, §3, §4

CAKI-1 = assay: NCI60 one-dose screen, CAKI-1; conditions: CAKI-1 (Renal Cancer); NCI 60 one-dose, 10^-5 M
Protocol: as §1, §2, §3, §4

SMILES | Growth Percent (SK-MEL-28) [%] | Growth Percent (CCRF-CEM) [%] | Growth Percent (K-562) [%] | Growth Percent (NCI/ADR-RES) [%] | Growth Percent (MCF7) [%] | Growth Percent (SF-295) [%] | Growth Percent (EKVX) [%] | Growth Percent (NCI-H522) [%] | Growth Percent (UO-31) [%] | Growth Percent (NCI-H322M) [%] | Growth Percent (OVCAR-5) [%] | Growth Percent (MOLT-4) [%] | Growth Percent (HS 578T) [%] | Growth Percent (PC-3) [%] | Growth Percent (BT-549) [%] | Growth Percent, Mean (NCI60 Cell Line Panel) [%] | Growth Percent (LOX IMVI) [%] | Growth Percent (CAKI-1) [%]
CC(=O)N1c2ccccc2NC2=C(C(=O)N(C)C2(C)C)C1c1ccccc1 (stereo not drawn) [NUCC-60872] | 56.02 | 20.66 | 16.57 | 101.74 | 16.41 | 45.97 | 61.53 | 18.58 | 81.99 | 73.36 | 62.50 | 33.27 | 20.42 | 36.41 | 69.46 | 41.43 | 37.52 | 71.91
CC(=O)N1c2ccccc2NC2=C(C(=O)N(Cc3ccccc3)C2(C)C)C1c1ccco1 (stereo not drawn) [NUCC-608455] | 57.26 | 24.15 | 12.60 | 82.92 | 15.26 | −0.75 | 35.37 | 21.79 | 52.54 | 44.61 | 25.92 | 28.58 | 10.67 | 29.67 | 47.62 | 23.48 | 25.57 | 42.97
